From patent publication US20220324835A1 (Nurix Therapeutics, Inc., priority 2018, published 2022)

Tests used:
[1] = molecular target: T1, Cbl-b (Homo sapiens, UniProt Q13191); assay: Cbl-b inhibition assay (Cbl-b activity assay, FRET, Biological Example 1; 100 mM NaCl, 60 nM Src kinase); assay type: biochemical; settings: upper bound stated in text lists; read-out: IC50 values in the Cbl-b inhibition assay of Biological Example 1
How it was run: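 FRET read-out: loss of signal marks inhibition. Mix = biotin-Avi-Cbl-b (N-term), Src kinase, UbcH5B-Ub(Bodipy-FL, irreversible conjugate), streptavidin-Tb, assay buffer.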

[2] = tested on: T-cell; assay: IL-2 secretion from T-cells co-stimulated with anti-CD3 and anti-CD28 antibody (Biological Example 2); assay type: cell-based, human; settings: Homo sapiens, T-cell, primary human total T-cells, baseline = anti-CD3/anti-CD28 stimulated cells without inhibitor, read-out: IL-2 secretion, Anti-CD3/Anti-CD28 stimulation, fold change over baseline; for fold induction at 0.3 µM: 0.3 μM compound; for fold induction at 1 µM: 1 μM compound; for fold induction at 4 µM: 4 μM compound
How it was run: (§1)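 Values are fold-change over baseline: readings (IL-2 release, CD25 staining) from inhibitor-treated T-cells divided against untreated cells […]. No detailed procedure stated.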

[3] = tested on: T-cell; assay: CD25 cell surface staining on T-cells co-stimulated with anti-CD3 and anti-CD28 antibody (Biological Example 2); assay type: cell-based, human; settings: Homo sapiens, T-cell, primary human total T-cells, baseline = anti-CD3/anti-CD28 stimulated cells without inhibitor, read-out: CD25 staining, Anti-CD3/Anti-CD28 stimulation, fold change over baseline; for fold induction at 0.3 µM: 0.3 μM compound; for fold induction at 1 µM: 1 μM compound; for fold induction at 4 µM: 4 μM compound
How it was run: as §1

[4] = molecular target: T1, Cbl-b; assay: Cbl-b activity assay (Cbl-b inhibition assay), TR-FRET of Cbl-b interaction with UbcH5B-Ub; assay type: biochemical; settings: assay buffer with 100 mM NaCl, 60 nM Src kinase; read-out: Cbl-b activity IC50
How it was run: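 Compound-treated Cbl-b was incubated 1.5 h with Src kinase (60 nM final; 30 nM for asterisked values, which also used 50 mM instead of 100 mM NaCl), 1 mM ATP and 5 mM MgCl2. Binding to fluorescent Ub-loaded UbcH5B (C85K mutant) was then read by TR-FRET after 1 h more.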

[5] = tested on: T-cell; assay: IL-2 secretion from T-cells stimulated with anti-CD3 antibody alone (Biological Example 2); assay type: cell-based; settings: primary human total T-cells, read-out: IL-2 secretion, Anti-CD3 stimulation, fold change over baseline; for fold induction at 1 µM: 1 μM compound; for fold induction at 8 µM: 8 μM compound
[6] = tested on: T-cell; assay: CD25 cell surface staining on T-cells stimulated with anti-CD3 antibody alone (Biological Example 2); assay type: cell-based; settings: primary human total T-cells, baseline = anti-CD3/anti-CD28 stimulated cells without inhibitor, read-out: CD25 staining, Anti-CD3 stimulation, fold change over baseline; for fold induction at 1 µM: 1 μM compound; for fold induction at 8 µM: 8 μM compound

T1 sequence (Q13191 36-427): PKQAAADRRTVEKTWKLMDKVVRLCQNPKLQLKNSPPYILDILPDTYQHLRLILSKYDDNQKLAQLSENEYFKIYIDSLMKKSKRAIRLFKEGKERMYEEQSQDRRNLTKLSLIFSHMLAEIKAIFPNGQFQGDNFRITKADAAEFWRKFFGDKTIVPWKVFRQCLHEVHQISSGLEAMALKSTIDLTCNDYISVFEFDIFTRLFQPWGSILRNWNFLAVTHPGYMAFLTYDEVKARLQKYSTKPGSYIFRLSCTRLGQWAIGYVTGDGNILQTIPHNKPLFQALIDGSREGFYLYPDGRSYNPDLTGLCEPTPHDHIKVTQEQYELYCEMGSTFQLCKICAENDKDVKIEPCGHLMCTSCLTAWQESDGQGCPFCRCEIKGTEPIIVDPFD

Compound | IC50 [1] [nM] | fold induction at 0.3 µM [2] | fold induction at 1 µM [2] | fold induction at 4 µM [2] | fold induction at 0.3 µM [3] | fold induction at 1 µM [3] | fold induction at 4 µM [3] | IC50 [4] [nM] | fold induction at 1 µM [5] | fold induction at 8 µM [5] | fold induction at 1 µM [6] | fold induction at 8 µM [6]
Cn1cnnc1CC1(c2cccc(N3Cc4c(cc(CN5CC(C)(C#N)C5)cc4C(F)(F)F)C3=O)c2)COC1 [Compound 425, 3-methyl-1-((2-(3-(3-((4-methyl-4H-1,2,4-triazol-3-yl)methyl)oxetan-3-yl)phenyl)-3-oxo-7-(trifluoromethyl)isoindolin-5-yl)methyl)azetidine-3-carbonitrile] | ≤ 100 | 2.51 to 5 | > 7.5 | > 7.5 | 1.01 to 1.3 | 1.31 to 1.5 | 1.51 to 1.75 | < 100 | 0.151 to 0.2 | 0.051 to 0.1 | 0.601 to 0.8 | < 0.6
Cn1cnnc1CC1(c2cccc(N3Cc4c(cc(CN5CCCC5=O)cc4C(F)(F)F)C3=O)c2)COC1 [Compound 426, 2-(3-(3-((4-methyl-4H-1,2,4-triazol-3-yl)methyl)oxetan-3-yl)phenyl)-6-((2-oxopyrrolidin-1-yl)methyl)-4-(trifluoromethyl)isoindolin-1-one] | ≤ 100 | 1.01 to 2.5 | 1.01 to 2.5 | 2.51 to 5 | 1.01 to 1.3 | 1.01 to 1.3 | 1.01 to 1.3 | < 100 | 0.151 to 0.2 | > 0.201 | > 1 | > 1
C[C@H]1C=CCN1Cc1cc2c(c(C(F)(F)F)c1)CN(c1cccc(C3(Cc4nncn4C)COC3)c1)C2=O [Compound 427] | ≤ 100 | > 7.5 | > 7.5 | > 7.5 | 1.31 to 1.5 | 1.51 to 1.75 | 1.51 to 1.75 | < 100 | > 0.201 | > 0.201 | > 1 | > 1
Cn1cnnc1CC1(c2cccc(N3Cc4c(cc(CN5CC(C(=O)O)C5)cc4C(F)(F)F)C3=O)c2)COC1 [Compound 428] | ≤ 100 | 1.01 to 2.5 | 1.01 to 2.5 | 1.01 to 2.5 | 1.01 to 1.3 | 1.01 to 1.3 | 1.01 to 1.3 | < 100 | 0.151 to 0.2 | > 0.201 | 0.801 to 1 | > 1
CC(c1cc2c(c(C(F)(F)F)c1)CN(c1cccc(C3(Cc4nncn4C)COC3)c1)C2=O)N1CC(S(C)(=O)=O)C1 (stereo not drawn) [Compound 430, 2-(3-(3-((4-methyl-4H-1,2,4-triazol-3-yl)methyl)oxetan-3-yl)phenyl)-6-(l-(3-(methylsulfonyl)azetidin-1-yl)ethyl)-4-(trifluoromethyl)isoindolin-1-one] | ≤ 100 | 1.01 to 2.5 | 1.01 to 2.5 | – | 1.01 to 1.3 | 1.01 to 1.3 | – | < 100 | 0.101 to 0.15 | – | 0.601 to 0.8 | –
Cn1cnnc1CC1(c2cccc(N3Cc4c(cc(CN5CCOCC5)cc4C(F)(F)F)C3=O)c2)COC1 [Compound 431, 2-(3-{3-[(4-methyl-4H-1,2,4-triazol-3-yl)methyl]oxetan-3-yl}phenyl)-6-[(morpholin-4-yl)methyl]-4-(trifluoromethyl)-2,3-dihydro-1H-isoindol-1-one] | ≤ 100 | 2.51 to 5 | > 7.5 | – | 1.31 to 1.5 | 1.31 to 1.5 | – | < 100 | > 0.201 | – | > 1 | –
Cn1cnnc1CC1(c2cccc(N3Cc4c(cc(CN5CCCC56COC6)cc4C(F)(F)F)C3=O)c2)COC1 [Compound 433, 2-(3-{3-[(4-methyl-4H-1,2,4-triazol-3-yl)methyl]oxetan-3-yl}phenyl)-6-({2-oxa-5-azaspiro[3,4]octan-5-yl}methyl)-4-(trifluoromethyl)-2,3-dihydro-1H-isoindol-1-one] | ≤ 100 | 1.01 to 2.5 | 5 to 7.5 | – | 1.01 to 1.3 | 1.31 to 1.5 | – | < 100 | 0.151 to 0.2 | – | 0.801 to 1 | –
Cn1cnnc1CC1(c2cccc(N3Cc4c(cc(CN5CCS(=O)(=O)CC5)cc4C(F)(F)F)C3=O)c2)COC1 [Compound 434, 4-{[2-(3-{3-[(4-methyl-4H-1,2,4-triazol-3-yl)methyl]oxetan-3-yl}phenyl)-3-oxo-7-(trifluoromethyl)-2,3-dihydro-1H-isoindol-5-yl]methyl}-1λ^6-thiomorpholine-1,1-dione] | ≤ 100 | 2.51 to 5 | 2.51 to 5 | – | 1.01 to 1.3 | 1.01 to 1.3 | – | < 100 | 0.101 to 0.15 | – | > 1 | –
Cn1cnnc1CC1(c2cccc(N3Cc4c(cc(CN5CCC(C)(F)C5)cc4C(F)(F)F)C3=O)c2)COC1 (stereo not shown) [Compound 435, 6-((3-fluoro-3-methylpyrrolidin-1-yl)methyl)-2-(3-(3-((4-methyl-4H-1,2,4-triazol-3-yl)methyl)oxetan-3-yl)phenyl)-4-(trifluoromethyl)isoindolin-1-one] | ≤ 100 | > 7.5 | > 7.5 | – | 1.31 to 1.5 | 1.31 to 1.5 | – | < 100 | > 0.201 | – | > 1 | –
Cn1cnnc1CC1(c2cccc(N3Cc4c(cc(CO)cc4C(F)(F)F)C3=O)c2)COC1 [Compound 437, 6-(hydroxymethyl)-2-(3-(3-((4-methyl-4H-1,2,4-triazol-3-yl)methyl)oxetan-3-yl)phenyl)-4-(trifluoromethyl)isoindolin-1-one] | ≤ 100 | 2.51 to 5 | 5 to 7.5 | > 7.5 | 1.01 to 1.3 | 1.31 to 1.5 | 1.51 to 1.75 | < 100 | 0.101 to 0.15 | 0.051 to 0.1 | 0.601 to 0.8 | 0.601 to 0.8
Cn1cnnc1C(F)(F)[C@](C)(F)c1cccc(N2Cc3c(cc(-c4cncc(F)c4)cc3C(F)(F)F)C2=O)c1 [Compound 440, (R)-6-(5-fluoropyridin-3-yl)-2-(3-(1,1,2-trifluoro-1-(4-methyl-4H-1,2,4-triazol-3-yl)propan-2-yl)phenyl)-4-(trifluoromethyl)isoindolin-1-one] | ≤ 300 | 1.01 to 2.5 | 2.51 to 5 | 2.51 to 5 | < 1 | 1.01 to 1.3 | 1.01 to 1.3 | 100 to 300 | 0.101 to 0.15 | 0.151 to 0.2 | 0.601 to 0.8 | 0.801 to 1
CN1CCN(c2cc3c(c(C(F)(F)F)c2)CN(c2cccc([C@@](C)(F)C(F)(F)c4nncn4C)c2)C3=O)CC1 [Compound 441, (R)-6-(4-Methylpiperazin-1-yl)-2-(3-(1,1,2-trifluoro-1-(4-methyl-4H-1,2,4-triazol-3-yl)propan-2-yl)phenyl)-4-(trifluoromethyl)isoindolin-1-one] | ≤ 300 | 1.01 to 2.5 | 1.01 to 2.5 | 2.51 to 5 | 1.01 to 1.3 | 1.01 to 1.3 | 1.01 to 1.3 | 100 to 300 | 0.051 to 0.1 | 0.151 to 0.2 | 0.601 to 0.8 | > 1
